Laboratory results published in PubChem BioAssay AID1963847 (Molecular Pharmacology Branch, DTP, NCI, 2024).

System: 415267-285-R-J2-PDC complex spheroid viability
Assay: Anticancer human tumor 415267-285-R-J2-PDC patient-derived breast carcinoma cell line growth inhibition [POLQ]
Settings: for IC50: curve of first compound; for viability, T/C: stronger effect = lower value
Protocol: Multicellular complex tumor spheroid response to Polymerase (POL) inhibitors (novobiocin, ART-558, RP6685) in combination with a variety of drugs and investigational agents in selected tumor cell lines
The POL inhibitors (novobiocin, ART-558, and RP6685) were evaluated both individually and in combination with standard of care and investigational anticancer small molecules within a complex spheroid model of solid tumors. . Complex spheroids include a stromal component modeled by human endothelial cells (HUVEC) and fibroblasts modeled by human mesenchymal stem cells (MSCs). The concentration ranges selected for each drug and investigational agent were based upon clinically achievable concentrations if the clinical Cmax of the agent was known.
Compounds. The drugs and investigational agents: novobiocin (NSC847541), ART-558 (NSC835418), RP-6685 (NSC848927), peposertib (NSC802822), ceralasertib (NSC780249), elimusertib (NSC800525), camonsertib (NSC841442), AZD-1390 (NSC803789), olaparib (NSC753686), talazoparib (NSC767125), rucaparib (NSC756644), sotorasib (NSC818433), MRTX-1133 (NSC836407), SN-38 (NSC673596), topotecan (NSC609699), epotoside (NSC141540), doxorubicin (NSC123127), gemcitabine (NSC613327), 5-fluorouracil (NSC19893), paclitaxel (NSC125973), vemurafenib (NSC761431), MSA-2 (NSC828583), SN-011 (NSC837082), adavosertib (NSC754352), prexasertib (NSC758257), carboplatin (NSC241240) and oxaliplatin (NSC266046), were obtained from the National Cancer Institute (NCI) Developmental Therapeutics Program Chemical Repository (21). The FDA-approved anticancer drug set is available from the Developmental Therapeutics Program at https://dtp.cancer.gov/organization/dscb/obtaining/. […] The stock solutions were prepared in dimethyl sulfoxide (DMSO, Sigma-Aldrich, St. Louis, MO, cat. D2650), except for the platinum compounds which were prepared in saline (Quality Biological, Gaithersburg, MD, cat. 114-055-101), at 800-fold the tested concentration and stored at -70 degrees C prior to their use. All drugs and investigational agents were tested over a range starting from a high concentration at or near the clinical Cmax and decreasing in half-log increments. If the clinical Cmax for an agent had not been determined, the highest concentration tested was 10 microM, except for SN-38, which was tested at a high concentration of 1 microM.
Cell Culture. All cells were maintained in an incubator at 37 degrees C and 5% CO2 with 95% humidity. The PDC lines were cultured according to standard operating procedures established by the NCI PDMR (https://pdmr.cancer.gov). Table 3 of the manuscript, lists the cell lines along with the number of the three cell types plated to form the mct-spheroids and media for tumor cell growth. After thawing, all PDC lines, except 997537-175-T-J1-PDC and 415267-285-R-J2-PDC, were cultured in Matrigel-coated flasks prepared with a working solution of 1X Ham's F-12 nutrient mix, without supplementation (Thermo Fisher Scientific, cat. 11765054), 100 U/mL penicillin-streptomycin (Thermo Fisher Scientific, cat. 15140122), and 2.5% Matrigel (Corning Inc., Corning, NY, cat. 354248) for the first three passages. The two PDC lines 997537-175-T-J1-PDC and 415267-285-R-J2-PDC were cultured on uncoated flasks. The 857933-349-R-J2-PDC line was cultured in 6C/Colon 1B media containing advanced DMEM/F-12 (Thermo Fisher Scientific, cat. 12634028), 10 mM HEPES (Thermo Fisher Scientific, cat. 15630080), 1X GlutaMAX supplement (Thermo Fisher Scientific, cat. 35050061), 0.1 mg/mL primocin (InvivoGen, San Diego, CA, cat. ant-pm-2), 10% defined fetal bovine serum, heat inactivated (HyClone Laboratories Inc., Logan, UT, cat. SH30070.03HI), 50% L-WRN conditioned media (ATCC, cat. CRL-3276), 1.25 mM N-Acetyl-L-cysteine (Sigma-Aldrich, cat. A9165), 10 mM nicotinamide (Sigma-Aldrich, cat. N0636), 1X B-27 supplement (Thermo Fisher Scientific, cat. 17504044), 1X N-2 supplement (Thermo Fisher Scientific, cat. […]
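Further: spheroids exposed to compounds for one week before readout.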
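Wherever viability, T/C is given: luminescence used as stand-in measure of viable cells; 100% = DMSO vehicle control viability.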

Nc1ccn(C2OC(CO)C(O)C2(F)F)c(=O)n1 (configuration not stated) + Cc1cccc(N(C)C(=O)C2C(O)CCN2c2nc(C)cc(C(F)(F)F)c2C#N)c1
IC50 (second compound 0.0316 µM): < 31.6 nM
IC50 (second compound 0.1 µM): < 31.6 nM
IC50 (second compound 0.316 µM): < 31.6 nM
IC50 (second compound 1 µM): < 31.6 nM
IC50 (second compound 3.16 µM): < 31.6 nM
IC50 (second compound 10 µM): < 31.6 nM
viability, T/C (second compound 0.0316 µM, first compound 0.0316 µM): 8.22%
viability, T/C (second compound 0.0316 µM, first compound 0.1 µM): 6.11%
viability, T/C (second compound 0.0316 µM, first compound 0.316 µM): 5.62%
viability, T/C (second compound 0.0316 µM, first compound 1 µM): 4.61%
viability, T/C (second compound 0.0316 µM, first compound 3.16 µM): 5.96%
viability, T/C (second compound 0.0316 µM, first compound 10 µM): 5.35%
viability, T/C (second compound 0.1 µM, first compound 0.0316 µM): 8.77%
viability, T/C (second compound 0.1 µM, first compound 0.1 µM): 5.43%
viability, T/C (second compound 0.1 µM, first compound 0.316 µM): 6.85%
viability, T/C (second compound 0.1 µM, first compound 1 µM): 5.22%
viability, T/C (second compound 0.1 µM, first compound 3.16 µM): 6.13%
viability, T/C (second compound 0.1 µM, first compound 10 µM): 4.79%
viability, T/C (second compound 0.316 µM, first compound 0.0316 µM): 8.5%
viability, T/C (second compound 0.316 µM, first compound 0.1 µM): 6.58%
viability, T/C (second compound 0.316 µM, first compound 0.316 µM): 5.69%
viability, T/C (second compound 0.316 µM, first compound 1 µM): 5.62%
viability, T/C (second compound 0.316 µM, first compound 3.16 µM): 6.58%
viability, T/C (second compound 0.316 µM, first compound 10 µM): 6.07%
viability, T/C (second compound 1 µM, first compound 0.0316 µM): 12.5%
viability, T/C (second compound 1 µM, first compound 0.1 µM): 6.12%
viability, T/C (second compound 1 µM, first compound 0.316 µM): 5.2%
viability, T/C (second compound 1 µM, first compound 1 µM): 5.51%
viability, T/C (second compound 1 µM, first compound 3.16 µM): 5.07%
viability, T/C (second compound 1 µM, first compound 10 µM): 5.32%
viability, T/C (second compound 3.16 µM, first compound 0.0316 µM): 7.95%
viability, T/C (second compound 3.16 µM, first compound 0.1 µM): 5.96%
viability, T/C (second compound 3.16 µM, first compound 0.316 µM): 5.8%
viability, T/C (second compound 3.16 µM, first compound 1 µM): 4.93%
viability, T/C (second compound 3.16 µM, first compound 3.16 µM): 5.53%
viability, T/C (second compound 3.16 µM, first compound 10 µM): 5.95%
viability, T/C (second compound 10 µM, first compound 0.0316 µM): 9.14%
viability, T/C (second compound 10 µM, first compound 0.1 µM): 6.37%
viability, T/C (second compound 10 µM, first compound 0.316 µM): 6.58%
viability, T/C (second compound 10 µM, first compound 1 µM): 5.23%
viability, T/C (second compound 10 µM, first compound 3.16 µM): 6.03%
viability, T/C (second compound 10 µM, first compound 10 µM): 5.65%
